Literature values as cited in patent US8883786B2, “Glucocorticoid receptor antagonists” (Hoffmann-La Roche Inc., priority 2007, dated 2014).

Columns and labels:
[1] = test system: ob/ob mice; conditions: leptin deficient ob/ob mice
[2] = clinical administration, chronic, Cushing's patients
[3] = long term treatment (up to 1 year)
[4] = test system: Hypothalamus-Pituitary gland-Adrenal gland (HPA) axis; conditions: HPA axis stimulation via feed-back mechanism
[5] = clinical administration, acute, normal volunteers
[6] = test system: gluconeogenic enzymes; conditions: db/db mice

Question: With `CC#C[C@]1(O)CC[C@H]2[C@@H]3CCC4=CC(=O)CCC4=C3[C@@H](c3ccc(N(C)C)cc3)C[C@@]21C` [RU486/mifepristone, mifepristone] as the compound, how does the fasting plasma glucose [1] read?
Answer: normalizes fasting plasma glucose

Question: And the “plasmatic HbA1c” value [2]?
Answer: decrease of plasmatic HbA1c

Question: What about the adrenal insufficiency symptoms [3] of the same compound?
Answer: induces some adrenal insufficiency symptoms

Question: What about the “endogenous corticosteroids circulating in the blood” value [4] of the same compound?
Answer: increase of endogenous corticosteroids circulating in the blood

Question: And the fasting plasma glucose [5]?
Answer: decrease of fasting plasma glucose

Question: What about the “activity of gluconeogenic enzymes” value [6] of the same compound?
Answer: normalizes
